What was measured:
32D myeloid progenitors [1] = assay: FACS analysis of F-actin reorganization in 32D progenitors; assay type: cell-based, murine; conditions: dose-dependent pattern
Source text: (§1) To shed light on potential roles of CASIN in HSPC mobilization, the effects of CASIN on Cdc42-related cellular functions was studied, including adhesion, migration, and F-actin polymerization of progenitor cells in 32D myeloid progenitors. […] SDF-1α stimulation causes a reorganization of F-actin into a cortical ring around the cells. […] Thirdly, to gain further insight into cellular specificity and efficacy of CASIN, and also to rule out possible toxic effects by CASIN, Cdc42-involved BM progenitor cell functions were examined, including proliferation, adhesion, migration, and F-actin polymerization, in Cdc42^+/+ cells in parallel with Cdc42^−/− cells. In line with additional studies in a Cdc42 conditional knockout mouse model as described herein, Cdc42^−/− LDBM cells have increased CFU-forming progenitors compared to those of Cdc42^+/+.

32D myeloid progenitors [2] = assay: adhesion of 32D progenitors to fibronectin fragment CH296; assay type: cell-based, murine; conditions: gradient CASIN treatments
Source text: as §1

[3] = system: Lin^−c-Kit^+ BM progenitors; assay: F-actin immunofluorescence in Lin−c-Kit+ BM progenitors; assay type: cell-based, murine; conditions: double-sorted Lin^−c-Kit^+ BM progenitors; CASIN pre-treatment at 5 or 10 μM
Source text: as §1
Cells then were stimulated with 100 ng/ml SDF-1α for 45 secs, and further stained with Rhodamine/Phalloidin for actin and DAPI for nucleus as described herein.

LDBM cells = assay: CFU-migration assay of LDBM progenitors towards SDF-1α; assay type: cell-based, murine
Source text: as §1
Murine LDBM cells from Cdc42^+/+ as well as Cdc42^−/− mice were used for CFU-adhesion/migration experiments as described previously. Briefly, for adhesion experiment, in the presence or absence of prior CASIN treatment at doses of 5 and 10 μM, 10^5 cells were plated onto each well of 48-well plates pre-coated with fibronectin fragment CH296, which contains integrin α4β1-binding site. Adherent cells then were harvested by cells dissociation buffer (Gibco, Carlsbad, Calif.), and further plated in CFU assay. […]

C57Bl/6 mice = assay: mobilization of colony-forming progenitors to peripheral blood, CFU-C assay; assay type: in vivo; conditions: intraperitoneal 2.4 mg/Kg, 40 hrs post administration, in comparison to vehicle control
Procedure: Whether CASIN administration can induce mobilization of HSC/Ps to peripheral blood of C57Bl/6 mice, mimicking the phenotype observed in Cdc42 conditional knockout mice, was evaluated. First of all, mobilization of hematopoietic progenitor cells was examined by CFU-C assays functionally (FIG. 3a). […] Secondarily, to further explore the ability of CASIN to mobilize LT-HSC which is crucial for long-term repopulation of the mobilized cells, serial transplantations were carried out, where 20 million PB from CASIN-mobilized C57Bl/6 mice was transplanted into primary recipient of NOD/SCID mice, and subsequent secondary and tertiary transplants were finished as well using prior BMs (FIG. 3c). Donor chimerisms were assessed by using H2K^b congenic marker which is positive for donors of C57Bl/6 strain and negative for recipients of NOD/SCID strain. […] Therefore, the studies show CASIN can efficiently mobilize colony-forming hematopoietic progenitors and LT-HSCs with self-renewal and multi-lineage differentiation capacity. Thirdly, to further investigate the potential of CASIN to vacate the BM niche after mobilization, six-color staining of the BM cells was performed from C57Bl/6 mice with or without CASIN treatment followed by FACS analysis. […] Therefore, a transient decrease in BM and a concomitant increase in peripheral organs of HSCs would be beneficial to facilitating the subsequent HSC transplantation.
To determinate the hematopoietic progenitor content in the PB of mobilized C57Bl/6 mice, colony-forming unit assay was performed as described previously. Briefly, 200 ul PB was plated in triplicate into methylcellulose (MethocultM3434; StemCell Technology, Vancouver, BC, Canada). Colonies were then counted 7 d later.

leukemia cells = assay: apoptosis of leukemia cells by FACS analysis; assay type: cell-based, human; conditions: after 24 hrs' CASIN pre-treatment, FIG. 5D
[4] = system: other Rho GTPases and Ras; assay: Example 7 effector pull-down in LDBM and HCB cells, other Rho GTPases and Ras; assay type: cell-based, murine LDBM and human HCB cells
Procedure: (§2) To exclude the inhibitory effect of CASIN on other Rac isoforms, Rho GTPases, and Ras, broader effector pull-down experiments are performed on these possible candidates with gradient doses of CASIN in LDBM and HCB cells as previously described. In addition, CASIN has been indicated as a noncovalent and reversible inhibitor in Xenopus egg extract. To confirm it, reversibility is monitored in this set of effector pull-down experiments. Four treatment groups are divided for both LDBM and HCB cells: (1) Serum starvation 20 h; (2) Serum starvation 20 h+growth factors stimulation; (3) Serum starvation 20 h+CASIN treatment (doses: 1, 2.5, 5, and 10 μM) 3 h+growth factor stimulation; (4) Serum starvation 20 h+CASIN treatment (doses: 1, 2.5, 5, and 10 μM) 3 h+wash the cells, and culture for another 3 h for recovery+growth factors stimulation. […] Bound proteins are analyzed by immunoblotting with respective antibodies (BD Biosciences). Furthermore, changes of downstream targets of Cdc42, Rac, and Rho under the four treatment groups are assessed. Phosphorylation status of PAK1, WASP (effectors of Cdc42), WAVE (effector of Rac), and ROCK (effector of Rho) are monitored by western blots using respective antibodies.

PAK1, WASP, WAVE, ROCK = assay: Example 7 phosphorylation of downstream effectors by western blot; assay type: cell-based, murine LDBM and human HCB cells; conditions: HCB and LDBM cells
Procedure: as §2

## OCCNC1CCCc2c1[nH]c1ccc(-c3ccccc3)cc21 (stereo not drawn) [CASIN]
32D myeloid progenitors [1]
  F-actin reorganization stimulated by SDF1α: significantly dampened
32D myeloid progenitors [2]
  percentages of adherent 32D cells to CH296: significantly reduced dose-dependently
[3]
  SDF-1α mediated reorganization of F-actin into cortical actin ring: lost their capacities to reorganize F-actin into the cortical actin ring
LDBM cells
  directional migration capacity of Cdc42^−/− cells: did not affect
C57Bl/6 mice
  mobilization of colony-forming progenitors to the peripheral blood: more than six-fold
Leukemia cells
  apoptosis of leukemia cells: precipitated leukemia cells to apoptosis
[4]
  activities of other Rho GTPases and Ras: without affecting
PAK1, WASP, WAVE, ROCK
  phosphorylation of PAK1 and WASP: inhibit
  phosphorylation of WAVE and ROCK: without affecting

From patent US9433663B2, “Mobilization of hematopoietic stem cells” (Children's Hospital Medical Center, priority 2008, dated 2016)
